Experimental data as given in paper PMC4456024 (Chemical biology & drug design, 2014).

Molecular target: cardiac troponin C (cNTnC) (Homo sapiens, UniProt P63316, C35S/C84S)
Assay: 2D 1H, […]-HSQC NMR titration, […] fit
Type: binding

## Cc1ccc(C)c(N2CCN(c3ccncc3N)CC2)c1 [compound 6, 4-(4-(2,5-dimethylphenyl)-1-piperazinyl)-3-pyridinamine]
  Kd: 721 ± 16 µM
